36 compounds from ChEMBL document CHEMBL4483862, “Open-source discovery of chemical leads for next-generation chemoprotective antimalarials” (2018) can be followed below.

In the assay the test system is Plasmodium berghei. The assay can be described thus: Luciferase/luciferin-expressing antifolate-resistant parasites were used to infect a culture of HepG2 cells that were pre-incubated with compounds. Infected hepatocytes emit light due to the luciferase reaction. Assay results are presented as the percent inhibition of light emission compared to control. […]. Format: functional. The settings on record: sporozoite; for IC90: read-out: LUCIFERASE INFECTION ASSAY - IC90.

Each structure is given as a SMILES string.

On to `OCc1ccc(-c2cn3c(-c4cccc(Cl)c4)cnc3cn2)cc1`, for which the IC90 is more than 9.83 µM. The IC50 (PBLUC_HILL_SLOPE 0.56, PBLUC_R_SQUARED 0.237, read-out: LUCIFERASE INFECTION ASSAY - IC50) was more than 9.83 µM.
Consider `CCCn1nc(C(=O)OCC(=O)c2cc(C)n(CC(F)(F)F)c2C)c2ccccc2c1=O`, for which the IC90 is more than 10 µM. Further, the IC50 (PBLUC_HILL_SLOPE 0.53, PBLUC_R_SQUARED 0.241, read-out: LUCIFERASE INFECTION ASSAY - IC50) was more than 10 µM.
On to `Cc1ccc2c(Cl)cc(Cl)c(Oc3ncnc4scc(-c5ccc(Cl)cc5)c34)c2n1`, for which the IC90 was more than 10 µM. Moreover, the half-maximal inhibitory concentration (IC50) (PBLUC_HILL_SLOPE 0.397, PBLUC_R_SQUARED 0.123, read-out: LUCIFERASE INFECTION ASSAY - IC50) is more than 10 µM.
Regarding `O=C(Nc1ccc2nc(Cc3ccccc3)nn2c1)Nc1cccs1`, the IC90 was more than 3.33 µM. Also, under “PBLUC_HILL_SLOPE 0.558, PBLUC_R_SQUARED 0.579, read-out: LUCIFERASE INFECTION ASSAY - IC50”, the IC50 was found to be 0.969 µM.
Regarding `CCCN1CCN(C(=O)c2ccc(-c3ccc(C(C)=O)cc3)o2)CC1`, the IC90 was more than 10 µM. Moreover, the IC50 (PBLUC_HILL_SLOPE 0.574, PBLUC_R_SQUARED 0.0124, read-out: LUCIFERASE INFECTION ASSAY - IC50) was more than 10 µM.
Turning to `Cc1ccc(Sc2nc(-c3cccs3)ns2)cc1`, the IC90 was more than 11.4 µM. In addition, the IC50 (PBLUC_HILL_SLOPE 0.427, PBLUC_R_SQUARED 0.742, read-out: LUCIFERASE INFECTION ASSAY - IC50) worked out at 0.259 µM.
With `O=C(Nc1cnc2ccccc2c1)c1cccc(NC(=O)c2cccs2)c1`, the IC90 was more than 10 µM. For the same compound, under “PBLUC_HILL_SLOPE 0.461, PBLUC_R_SQUARED 0.664, read-out: LUCIFERASE INFECTION ASSAY - IC50”, the IC50 was found to be 0.217 µM.
Take `O=C(NCCc1nc(-c2ccccc2)no1)c1cc2cc(Cl)ccc2o1`: the IC90 is more than 8.97 µM. The IC50 (PBLUC_HILL_SLOPE 0.5, PBLUC_R_SQUARED 0.259, read-out: LUCIFERASE INFECTION ASSAY - IC50) was more than 8.97 µM.
On to `C#CCSc1nnc(-c2ccc(C(C)(C)C)cc2)n1-c1ccc(C(C)C)cc1`, for which the IC90 is more than 8.47 µM. Further, the IC50 (PBLUC_HILL_SLOPE 0.5, PBLUC_R_SQUARED 0.648, read-out: LUCIFERASE INFECTION ASSAY - IC50) is more than 8.47 µM.
Take `O=C(Nc1ccc(Cl)cc1)O/N=C(\Nc1ccc(OC(F)(F)F)cc1)c1c(Cl)cccc1Cl`: the IC90 is more than 6.36 µM. Further, under “PBLUC_HILL_SLOPE 0.408, PBLUC_R_SQUARED 0.392, read-out: LUCIFERASE INFECTION ASSAY - IC50”, the IC50 was more than 6.36 µM.
Take `CC1CCN(C(=O)COC(=O)c2cc(-c3ccc(Cl)cc3)nc3ccccc23)c2ccccc2S1` (configuration not stated): the IC90 was more than 10 µM. Where the note is “PBLUC_HILL_SLOPE 0.574, PBLUC_R_SQUARED 0.62, read-out: LUCIFERASE INFECTION ASSAY - IC50”, the IC50 was 2.73 µM.
With `COCCn1c(C(=O)OC)c(NC(=O)c2ccco2)c2cc(NCCc3ccccc3)cnc21`, the concentration for an effect of 90% (IC90) is more than 7.14 µM. Also, the IC50 (PBLUC_HILL_SLOPE 0.526, PBLUC_R_SQUARED 0.429, read-out: LUCIFERASE INFECTION ASSAY - IC50) was determined as 4.07 µM.
`O=C(O)c1c2c(nc3ccccc13)/C(=C/c1ccccc1Cl)CC2`: the 90% effect concentration (IC90) was more than 10 µM. Further, under “PBLUC_HILL_SLOPE 0.525, PBLUC_R_SQUARED 0.706, read-out: LUCIFERASE INFECTION ASSAY - IC50”, the IC50 is 0.569 µM.
Take `Cc1cc(Oc2c(C)cccc2C)c2ccccc2n1`: the IC90 is more than 12.5 µM. Further, the IC50 (PBLUC_HILL_SLOPE 0.514, PBLUC_R_SQUARED 0.0638, read-out: LUCIFERASE INFECTION ASSAY - IC50) was more than 12.5 µM.
Consider `Fc1cccc(NC(=S)NN=C2CCCCCC2)c1`, for which the IC90 was more than 11.8 µM. The IC50 (PBLUC_HILL_SLOPE 0.519, PBLUC_R_SQUARED 0.189, read-out: LUCIFERASE INFECTION ASSAY - IC50) is more than 11.8 µM.
As for `CN(C)CCCNc1cc(N(C)C)c(N)c2c1C(=O)c1ccccc1C2=O`, the IC90 is more than 9.01 µM. Where the note is “PBLUC_HILL_SLOPE 0.553, PBLUC_R_SQUARED 0.182, read-out: LUCIFERASE INFECTION ASSAY - IC50”, the IC50 was more than 9.01 µM.
For the compound `FC(F)(F)c1cccc(NC(=S)NC2CC3C=CC2C3)c1` (configuration not stated), the IC90 was more than 10.6 µM. Besides, the IC50 (PBLUC_HILL_SLOPE 0.542, PBLUC_R_SQUARED 0.315, read-out: LUCIFERASE INFECTION ASSAY - IC50) turned out to be 4.71 µM.
Consider `CCOC(=O)c1c(Sc2ccccc2)cnn1C(=O)Nc1cccc(Cl)c1`, for which the IC90 is more than 8.21 µM. Also, the IC50 (PBLUC_HILL_SLOPE 0.46, PBLUC_R_SQUARED 0.851, read-out: LUCIFERASE INFECTION ASSAY - IC50) was more than 8.21 µM.
Turning to `Clc1ccc(C2=NC(c3ccc(Cl)c(Cl)c3)N=C(c3ccc(Cl)cc3)S2)cc1`, the IC90 was more than 7.08 µM. Also, the IC50 (PBLUC_HILL_SLOPE 0.411, PBLUC_R_SQUARED 0.521, read-out: LUCIFERASE INFECTION ASSAY - IC50) was more than 7.08 µM.
`COC(=O)C1=C(Sc2ccc(Cl)cc2)CSC1`: the IC90 was more than 11.5 µM. Further, where the note is “PBLUC_HILL_SLOPE 0.458, PBLUC_R_SQUARED 0.122, read-out: LUCIFERASE INFECTION ASSAY - IC50”, the IC50 is more than 11.5 µM.
For `CCCCn1nc(C)c(C(=O)Nc2nc3ccccc3[nH]2)c1Cl`, the IC90 was more than 10 µM. Also, under “PBLUC_HILL_SLOPE 0.43, PBLUC_R_SQUARED 0.84, read-out: LUCIFERASE INFECTION ASSAY - IC50”, the IC50 was 0.0912 µM.
For `Cc1ccc(NC(=O)c2[nH]nc3c2CCCC3)cc1Cl`, the IC90 is more than 2 µM. The IC50 (PBLUC_HILL_SLOPE 0.552, PBLUC_R_SQUARED 0.432, read-out: LUCIFERASE INFECTION ASSAY - IC50) turned out to be 0.0735 µM.
On to `COc1ccc(Cl)cc1COC(=O)COc1ccc2c(c1)CCC(=O)N2`, for which the IC90 was more than 10 µM. Also, the IC50 (PBLUC_HILL_SLOPE 0.441, PBLUC_R_SQUARED 0.194, read-out: LUCIFERASE INFECTION ASSAY - IC50) is more than 10 µM.
On to `CS(=O)(=O)c1nc2ccccc2n1CC(=O)c1ccc2c(c1)CCO2`, for which the IC90 was more than 10 µM. In addition, the IC50 (PBLUC_HILL_SLOPE 0.389, PBLUC_R_SQUARED 0.133, read-out: LUCIFERASE INFECTION ASSAY - IC50) is more than 10 µM.
Regarding `O=C(CCCc1cccs1)Nc1nnc[nH]1`, the concentration for an effect of 90% (IC90) was more than 10 µM. Further, the IC50 (PBLUC_HILL_SLOPE 0.436, PBLUC_R_SQUARED 0.0408, read-out: LUCIFERASE INFECTION ASSAY - IC50) is more than 10 µM.
As to `O=S(=O)(c1ccc(C(F)(F)F)cn1)c1cccs1`, the IC90 was more than 11.3 µM. Besides, the IC50 (PBLUC_HILL_SLOPE 0.531, PBLUC_R_SQUARED 0.132, read-out: LUCIFERASE INFECTION ASSAY - IC50) was more than 11.3 µM.
Take `CCCN(CCC)C(=S)NC(=O)c1cccc([N+](=O)[O-])c1`: the IC90 is more than 10.7 µM. Moreover, where the note is “PBLUC_HILL_SLOPE 0.519, PBLUC_R_SQUARED 0.204, read-out: LUCIFERASE INFECTION ASSAY - IC50”, the IC50 was more than 10.7 µM.
As for `Cc1cc(/C=C(\C#N)C(=O)OCc2ccccn2)c(C)n1CC(C)C`, the IC90 is more than 10 µM. For the same compound, where the note is “PBLUC_HILL_SLOPE 0.483, PBLUC_R_SQUARED 0.335, read-out: LUCIFERASE INFECTION ASSAY - IC50”, the IC50 amounted to 6.62 µM.
As to `CCn1c(CNC(=O)C2CCN(c3ccc(C#N)cn3)CC2)nc2ccccc21`, the IC90 is more than 10 µM. Moreover, the IC50 (PBLUC_HILL_SLOPE 0.433, PBLUC_R_SQUARED 0.506, read-out: LUCIFERASE INFECTION ASSAY - IC50) was determined as 4.94 µM.
Take `CN(C)CCCOc1ccc(-c2ccc(C(C)(C)C)cc2)cn1`: the IC90 was more than 10.6 µM. Also, under “PBLUC_HILL_SLOPE 0.428, PBLUC_R_SQUARED 0.727, read-out: LUCIFERASE INFECTION ASSAY - IC50”, the half-inhibitory concentration (IC50) worked out at 0.0859 µM.
Turning to `CN1CCN(c2ccc(-c3cn4c(-c5ccccc5Cl)cnc4cn3)cn2)CC1`, the IC90 was more than 8.15 µM. Moreover, where the note is “PBLUC_HILL_SLOPE 0.491, PBLUC_R_SQUARED 0.57, read-out: LUCIFERASE INFECTION ASSAY - IC50”, the IC50 came out at 3.67 µM.
In the case of `C=c1onc(-c2c(F)cccc2Cl)c1=C1NC(c2cc(C(F)(F)F)cc(C(F)(F)F)c2)=NO1`, the IC90 was more than 6.71 µM. Moreover, where the note is “PBLUC_HILL_SLOPE 0.442, PBLUC_R_SQUARED 0.157, read-out: LUCIFERASE INFECTION ASSAY - IC50”, the IC50 is more than 6.71 µM.
As to `Cc1ccc2nc(NC(=O)c3ccc(F)c(F)c3)c(C(=O)NCC(C)C)n2c1`, the IC90 is more than 8.54 µM. The IC50 (PBLUC_HILL_SLOPE 0.472, PBLUC_R_SQUARED 0.144, read-out: LUCIFERASE INFECTION ASSAY - IC50) was more than 8.54 µM.
For `COc1ccc(/C=N/OCC(=O)Nc2ccccc2C(F)(F)F)cc1`, the IC90 was more than 10 µM. Moreover, the IC50 (PBLUC_HILL_SLOPE 0.525, PBLUC_R_SQUARED 0.458, read-out: LUCIFERASE INFECTION ASSAY - IC50) was more than 10 µM.
Take `Cc1cc2ncc(-c3ccnc(SCC(=O)Nc4ccc(Cl)cc4Cl)n3)c(C)n2n1`: the IC90 was more than 7.18 µM. Also, under “PBLUC_HILL_SLOPE 0.44, PBLUC_R_SQUARED 0.0613, read-out: LUCIFERASE INFECTION ASSAY - IC50”, the IC50 is more than 7.18 µM.
Regarding `CCOC(=O)c1sc(N(Cc2ccccc2)C(=O)C2CC2C)nc1C` (configuration not stated), the IC90 was more than 10 µM. Also, under “PBLUC_HILL_SLOPE 0.389, PBLUC_R_SQUARED 0.128, read-out: LUCIFERASE INFECTION ASSAY - IC50”, the IC50 came out at 1.6 µM.
